This is an account of results in patent US6376666B1 (Nauchno-Issledovatelsky Institut Farmakologii Rossiiskoi …, priority 1994, dated 2002).

For orientation: melting point means the temperature of the solid-liquid transition. A word on the ED50: it is the dose that gives a 50% effect, or the effect in half of the subjects. One may read the LD50 as the dose at which mortality reaches 50%.

The subject of data set [1] is calcium chloride arrhythmia. The data set can be described thus: calcium chloride arrhythmia in concious rats. Particulars: Rattus norvegicus, iv, concious rats, given 2 min prior calcium chloride 250-300 mg/kg i.v.; read-out: Calcium chloride arrhythmia ED50 (mean effective dose). Format: in vivo. On the procedure:
In these experiments the outbred concious rats 180-200 g of weight were injected with 10% solution of calcium chloride in tail vein at dose range of 250-300 mg/kg.

A further data set concerns cats. Briefly: hemodynamics and activity of intact heart in cats under anesthesia. It counts as in vivo. The conditions noted are these: for effect on heart rate, in words: VIII 1,0, IX 0,5 and 1,0, XX 1,0 and 2,0 mg/kg, XXIII 1.0, verapamil 0.5 mg/kg. The procedure: The effects of compounds on the hemodynamics and activity of intact heart were studied in cats under anesthesia. The experiments were carried out under conditions of open chest. The phase curve of aortic blood flow was the main index of cardiac activity. The compounds were administered i.v. in physiological solution. The t-Student' test was used to estimate the statistical significance.

The test system of the next data set is adrenaline arrhythmia. Briefly: adrenaline arrhythmia in concious rabbits. The conditions noted are these: given 2 min before arrhythmogenic dose of adrenaline.
A short description of a further data set: in vivo. The conditions noted are these: iv.
A further data set deals with aconitine arrhythmia. Briefly: animal or person. Format: in vivo, rats. Particulars: for ED50: Rattus norvegicus, iv, read-out: Aconitine arrhythmia ED50. On the procedure:
Aconitine arrhythmia. The aconitine arrhythmia was induced in concious rats weighing 180-200 g by the injection in tail vein of the aconitine sulfate solution at dose range of […]. […] The tested compounds were administered i.v. 3 min prior aconitine injection. The ED50 value was calculated according to Litchfield's method.

Data set [2] has as its system ventricular disturbances of heart rhythm. The data set can be described thus: arrhythmia in concious dogs according to Harris. Format: in vivo. The conditions noted are these: for % ectopic contractions, change vs basal level / Heart rate, change vs basal level: concious dogs, 2 mg/kg i.v. On the procedure:
The arrhythmia in concious dogs according to Harris. The experiments were conducted in mongrel dogs of either sex weighing 9-14 kg. Under anesthesia (40 mg/kg of nembutal i.v.) and artificial respiration the two-step occlusion of the left anterior descending coronary artery was performed. The constant ECG disturbances of the heart rhythm were recorded after 24 hours. […] T-Student' test was used for statistical calculation.

Data set [3] deals with ischemized myocardium of cats. The data set can be described thus: contractile and pump functions and ATP level of ischemized myocardium (20-40 min occlusion, reperfusion). It counts as in vivo. The procedure:
The effects of this compound on contractile and pump functions of ischemized myocardium were studied in cats weighing 3,0-4,5 kg under anesthesia with nembutal (40 mg/kg). […] The phase curve of blood flow in ascending part of the aortic arch was recorded with electromagnetic blood flowmeter MFV-1200 (“Nihon-Kohden”, Japan). Hemodynamics, heart activity values and the number of arrhythmia were calculated. In the experiments with 40 min ischemia immediately after 60 min the intact and ischemized zones of left ventricle were dissected and freezed in liquid nitrogen. ATP level was measured using hexokinase method in these zones. 4 series of experiments (2-control and 2-basic) were conducted in 12 cats in each. For statistical calculation the t-Student and Fisher's precision test were used.

The subject of data set [4] is ischemized myocardium of cats. Briefly: ST-segment elevation during 5 min occlusions of coronary artery (acute coronary deficiency). Format: in vivo. The conditions noted are these: cats, bolus injection. The procedure: These experiments were conducted in cats weighing 2,5-4,0 kg under anasthesia by i.v. injection of nembutal (40 mg/kg) in open chest conditions. Epicardium electrogram in 3-4 leads was registered in “Mingograph-81”. The value of mean elevation of ST-segment during 5 min occlusions of anterior left descending coronary artery with 15 min reperfusions between them was the main index of intensity of reversible ischemized damage of myocardium.
The statistical calculation was carried out with non-parametric Wilcocson method for associated variants.

In the next data set the test system is Balb/c mice. The data set can be described thus: open-field test, Balb/c mice (passive type of emotional-stress reaction). It counts as in vivo. The conditions noted are these: i.p., screening. The method in brief:
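Male mice, 20-22 g, dosed i.p. in water 30 min before a 3-min open-field test after 1 min in darkness; peripheral, central, rearing and total activity plus defecations recorded; Student t-test. Anxiolysis read as Balb/c activation, sedation as C57B1/6 inhibition.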

[5] abbreviates: 0.5 mg/kg i.v., 0.25 min after injection.
Setting [6] is: cats, 0.5 mg/kg i.v., after 2 min.
Where [7] appears, read: cats, 0.5 mg/kg i.v., after 5 min.
[8] abbreviates: cats, 0.5 mg/kg i.v., after 10 min.
Where [9] appears, read: cats, 0.5 mg/kg i.v., after 20 min.
The mark [10] stands for this setting: cats, 0.5 mg/kg i.v., after 30 min.
[11] abbreviates: 1.0 mg/kg i.v., 0.25 min after injection.
Setting [12] is: cats, 1.0 mg/kg i.v., after 2 min.
The mark [13] stands for this setting: cats, 1.0 mg/kg i.v., after 5 min.
Setting [14] is: cats, 1.0 mg/kg i.v., after 10 min.
[15] abbreviates: cats, 1.0 mg/kg i.v., after 20 min.
Where [16] appears, read: cats, 1.0 mg/kg i.v., after 30 min.

Counter-ions that a name gives are not always drawn.

Protocol for adrenaline arrhythmia: Adrenaline arrhythmia. The 0,1% solution of adrenaline hydrochloride was injected to the marginal ear's vein of rabbit weighing 2,5-3,0 kg at dose ranging 120-150 mcg/kg which induced cardiac rhythm disturbances of two types.
The tested compound was injected in 3 ml of distilled water 30 min after determination of arrhythmogenic dose of adrenaline and the ECG was recorded in 2nd standard lead. 2 min after administration of tested compound the arrhythmogenic dose of adrenaline was injected.

The compound `C=CCSc1nc2cc(C)c(C)cc2[nH]1` (as salt: hydrochloride) [III, 2-Allylthio-5,6-dimethylbenzimidazole] displayed a melting point of 119 to 120 °C.
In the case of `COc1ccc(CCN(C)CCCC(C#N)(c2ccc(OC)c(OC)c2)C(C)C)cc1OC` (centres unmarked) [Verapamil, verapamil, reference compound], in [1], the median effective dose (ED50) was determined as 1.1 mg/kg. Further, the “Heart rate, change from basal level” value is −13.7 ± 1.7 % in the data set with cats (setting [5]); −11.8 ± 2.0 % in the data set on cats (setting [6]); −12.3 ± 3.0 % with cats (setting [7]); −8.1 ± 2.0 % with cats (setting [8]); −5.4 ± 2.0 % with cats (setting [9]); −4.6 ± 3.4% in the data set with cats (setting [10]). In the data set on cats (setting [5]), the “Mean blood flow accelaration, change from basal level” value is −32.5 ± 5.7 %. Also, the “Mean blood pressure, change from basal level” value with cats (setting [5]) is recorded as −40.4 ± 7.0 %; in the data set with cats (setting [6]), −22.7 ± 8.1%; in the data set with cats (setting [7]) it was −8.7 ± 6.3%; in the data set with cats (setting [8]), −2.4 ± 2.6%; in the data set with cats (setting [9]) it was −8.5 ± 6.6%; in the data set with cats (setting [10]) it was −11.6 ± 7.0%. In addition, the “effect on heart rate, in words” value in the data set on cats (cats i.v.) is given as “induced the bradycardia”. Also, the “Mean blood flow accelaration (aortic), change from basal level” value in the data set with cats (setting [6]) is given as −15.5 ± 2.4 %; in the data set with cats (setting [7]), −8.1 ± 3.0 %; with cats (setting [8]) it was −9.9 ± 2.5 %; in the data set with cats (setting [9]), −8.7 ± 3.0%; in the data set with cats (setting [10]) it was −7.0 ± 4.2%. For the same compound, in the data set with adrenaline arrhythmia, the “Adrenaline arrhythmia. Range of active doses” value (“Adrenaline arrhythmia. Range” for short) lay in the range of 0.3 to 1.0 mg/kg.
`CCN(CC)CCNC(=O)c1ccc(N)cc1` [Novocainamide, novocainamide, reference compound] registered a median lethal dose (LD50) in the data set “in vivo” of 110 mg/kg. Further, the “LD50/ED50 (antiarrhythmic index)” value in the data set on aconitine arrhythmia (LD50 i.v. / ED50 aconitine arrhythmia) came to 2.7. In addition, the results for the 50% effective dose (ED50) (in the data set with aconitine arrhythmia; in [1]) were 41 mg/kg and 50 mg/kg, respectively.
Turning to `CCN(CC)CCSc1nc2cc(C)c(C)cc2[nH]1.Cl.Cl` [XXIII, dihydroxychloride 2-[2-(diethylamino)ethylthio]-5,6-dimethylbenzimidazole, reference compound], the “% ectopic contractions, change vs basal level” value is −57.4 ± 17.6 % in [2] (after 1 min); −66.2 ± 18.1 % in data set [2] (after 3 min); −54.6 ± 16.8 % in [2] (after 5 min); −22.6 ± 8.9 % in [2] (after 10 min); −24.8 ± 11.1 % in data set [2] (after 15 min); −8.8 ± 4.7% in [2] (after 30 min). Further, the “% ectopic contractions, change vs basal level” value in data set [2] (after 60 min) is −5.2 ± 2.6%. Further, the “Heart rate, change vs basal level” value in data set [2] (after 1 min) is reported as −19.0 ± 2.5 beats/min; in [2] (after 5 min), −30.4 ± 4.5 beats/min; in [2] (after 15 min), −29.0 ± 5.5 beats/min; in [2] (after 30 min) it was −14.0 ± 4.8 beats/min; in [2] (after 60 min) it was −12.0 ± 5.5 beats/min. For the same compound, in [2] (concious dogs, 2,0 mg/kg i.v.), the “duration of antiarrhythmic effect” value is “shorter”. In addition, the “effect on inhibition of contractile function of myocardium induced by ischemic damage, in words” value in data set [3] (20 min occlusion, 30 min reperfusion, 1,0 mg/kg bolus +50 mcg/kg/min i.v. during 30 min) is “observable only during occlusion period and first 10 min of reperfusion”. Besides, the “effect on ATP level in ischemized myocardium, in words” value in data set [3] (40 min occlusion, 60 min reperfusion, hexokinase method) is recorded as “did not change the ATP level”. The “duration of effect on ST-segment elevation after bolus injection, in words” value in [4] was “very short”. Further, the “Cardiac volume, change from basal level” value in the data set on cats (setting [11]) was “+3.6 ± 3.5%”; with cats (setting [12]), −3.6 ± 2.0%; with cats (setting [13]) it was −0.6 ± 2.3%; in the data set with cats (setting [14]), −0.7 ± 3.6%; in the data set with cats (setting [15]), −4.2 ± 2.4%; with cats (setting [16]) it was −4.5 ± 3.5%. For the same compound, the “Heart rate, change from basal level” value in the data set on cats (setting [11]) is −14.6 ± 1.2 %; with cats (setting [12]) it was −11.7 ± 1.3 %; in the data set on cats (setting [13]), −7.9 ± 1.6 %; with cats (setting [14]) it was −5.1 ± 1.2 %; in the data set on cats (setting [15]), −3.8 ± 1.5 %; in the data set with cats (setting [16]) it was −4.1 ± 1.0 %. In addition, the “Mean blood flow accelaration, change from basal level” value with cats (setting [11]) was “+2.1 ± 4.9%”. Further, the “Mean blood pressure, change from basal level” value was −13.9 ± 2.9 % in the data set with cats (setting [11]); −0.2 ± 4.0% with cats (setting [12]); “+3.4 ± 2.5%” in the data set with cats (setting [13]); “+3.8 ± 3.2%” with cats (setting [14]); “+2.8 ± 2.8%” in the data set on cats (setting [15]); “+2.9 ± 3.2%” in the data set with cats (setting [16]). Besides, in the data set on cats (cats i.v., same doses as bradycardia), the “effect on contractile function of heart, in words” value is given as “inhibition of contractile function of heart”. Also, in the data set on cats (cats i.v.), the “effect on heart rate, in words” value was “expressed and long bradycardia”. For the same compound, the “Mean blood flow accelaration (aortic), change from basal level” value with cats (setting [12]) is −4.9 ± 4.7%; with cats (setting [13]), −1.0 ± 5.0%; in the data set with cats (setting [14]) it was “+8.1 ± 3.0 %”; with cats (setting [15]), “+4.3 ± 2.7%”; with cats (setting [16]) it was −2.4 ± 3.4%.
With `CC(C)NCC(O)COc1cccc2ccccc12` (centres unmarked) [Propranolol, propranolol, reference compound], in data set [1], the ED50 amounted to 0.8 mg/kg. Moreover, in the data set on adrenaline arrhythmia, the “Adrenaline arrhythmia. Range” value lay within 0.3 to 1.0 mg/kg.
The compound `CCN(CC)CCSc1nc2ccccc2n1CCc1ccccc1` (as salt: hydrochloride) [XXI, 1-(β-Phenylethyl)-2-[2-(diethylamino)ethylthio]benzimidazole] gave a melting point of 129 to 130 °C.
Same read-out and setting: then `CCOc1ccc2nc(SCCN3CCCC3)[nH]c2c1` (as salt: hydrochloride) [Compound X, 2-[2-(Pyrrolidino)ethylthio]-5-ethoxybenzimidazole], with 127 to 130 °C (dec.).
`CCSc1nc2cc(C)c(C)cc2[nH]1` [Compound I, 2-Ethylthio-5,6-dimethylbenzimidazole] returned a melting point of 123 to 124 °C. Besides, the “effect on the behavior (locomotor activity) of Balb/c mice in open-field test, in words” value in the data set with Balb/c mice was “neither activatory nor inhibitory effects”.
Take `CCN(CC)CC(=O)Nc1c(C)cccc1C` [Lidocaine, lidocaine]: the ED50 came out at 7.8 mg/kg in the data set on aconitine arrhythmia and 7.5 mg/kg in data set [1]. In addition, in the data set on adrenaline arrhythmia, the “Adrenaline arrhythmia. Range” value lay within 5.0 to 8.0 mg/kg.
As to `C=CCSc1nc2ccc(OCC)cc2[nH]1` (as salt: hydrochloride) [IV, 2-Allylthio-5-ethoxybenzimidazole], the melting point is 252 to 254 °C (dec.).
For the compound `CCCSc1nc2cc(C)c(C)cc2[nH]1` [II, 2-Propylthio-5,6-dimethylbenzimidazole], the melting point fell in the range of 122 to 123 °C.
On to `Cc1cc2nc(SCCN3CCCC3)[nH]c2cc1C` (as salt: hydrochloride) (hydrate or solvate) [XIII, 2-[2-(Pyrrolidino)ethylthio]-5,6-dimethylbenzimidazole], for which the melting point was 115 to 116 °C (dec.).
